Experimental data reported in patent US8383814B2, “Substituted tetrahydropyran spiro pyrrolidinone and piperidinone, preparation and therapeutic use thereof” (Sanofi, priority 2008, dated 2013).

Legend:
rhesus H3 receptor = experiment: GTPγS radioligand binding assay: inhibition of rhesus H3 constitutive functional activity in cell membranes (inverse agonism); format: biochemical, rhesus monkey (Macacca Mulatta); set-up: concentration or dose not given beside the values; settings: negative value = below basal level
Description: (§1) Rhesus H3 membranes were prepared from the Flp-In T-REx 293 Cell Line (Invitrogen) stably transfected with pcDNA5/FRT/TO (Invitrogen) containing the rhesus monkey (Macacca Mulatta) 445 amino acid H3 receptor. (Genbank #AY231164). Stably transfected cultures were amplified in tissue culture flasks by standard tissue culture methods and induced to express rhesus H3 by exposure to 500 ng/ml tetracycline (Cellgro) for 24 hours. After induction, cells were dissociated from flasks utilizing Cell Stripper (Cellgro). Cells were centrifuged (1K×g, 5 min) and pellet frozen in an ethanol-dry ice bath to disrupt cell membranes. Frozen cell pellet was re-suspended in 5 mM HEPES (pH 7.4, Invitrogen) at 10 ml/1000 cm2 of harvested cells. The cell suspension was drawn through an 18 gauge needle (2-3×) followed by a 23 gauge needle (2-3×) to further disrupt cell membranes. The cell suspension was centrifuged (40K×g, 30 min). Cell membrane pellet was re-suspended in 5 mM HEPES (pH 7.4, Invitrogen) at a final protein concentration of 10 mg/ml. Rhesus H3 membranes were stored under liquid nitrogen prior to use in [3H]-Methylhistamine and GTP S radioligand binding assays.

[1] = target: T1, rhesus (Macacca Mulatta) H3 receptor (Macaca mulatta, UniProt Q865E1); experiment: Rhesus H3 radioligand binding assay ([3H]-methylhistamine displacement, WGA SPA beads); set-up: species or system rhesus monkey (Macacca Mulatta); settings: [3H]-methylhistamine 2 nM; membranes of Flp-In T-REx 293 cells expressing rhesus H3; Cheng-Prusoff
T1 construct: pcDNA5/FRT/TO (Invitrogen) containing the rhesus monkey (Macacca Mulatta) 445 amino acid H3 receptor
T1 sequence (Q865E1 1-445): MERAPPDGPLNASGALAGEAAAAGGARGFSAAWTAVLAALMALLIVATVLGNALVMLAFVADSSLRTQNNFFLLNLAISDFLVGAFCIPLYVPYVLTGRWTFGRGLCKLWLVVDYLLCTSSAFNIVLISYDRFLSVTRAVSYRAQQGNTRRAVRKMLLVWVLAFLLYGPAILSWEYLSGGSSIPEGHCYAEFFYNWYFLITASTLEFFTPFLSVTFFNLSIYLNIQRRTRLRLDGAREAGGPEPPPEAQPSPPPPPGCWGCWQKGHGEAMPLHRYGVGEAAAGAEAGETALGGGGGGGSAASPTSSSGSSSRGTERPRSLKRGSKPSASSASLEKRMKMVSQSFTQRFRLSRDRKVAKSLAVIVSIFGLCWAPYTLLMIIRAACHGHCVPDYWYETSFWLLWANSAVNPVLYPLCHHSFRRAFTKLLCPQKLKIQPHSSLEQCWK
Description: as §1
Rhesus H3 radioligand binding assay was performed using rhesus H3 receptor membranes (prepared as described above), [3H]-Methylhistamine (Perkin Elmer) and WGA SPA beads (wheat germ agglutinin scintillation proximity assay) beads (Amersham). The assay was performed in 96-well Opti-Plates (Packard). Each reaction contained 50 μl rhesus H3 membranes (20-30 μg total protein), 50 μl WGA SPA beads (0.1 μg) and 50 μl of 83 Ci/mmol [^3H]-Methylhistamine (final concentration 2 nM) and 50 μl of tested compound. The compounds of this invention and/or vehicle were diluted with binding buffer from 10 mM DMSO stocks. Assay plates were sealed with TopSeal (Perkin Elmer) and mixed on shaker (25° C., 1 hour). Assay plates were read on TopCount scintillation counter (Packard). Results were analyzed by Hill transformation and Ki values were determined by Cheng-Prusoff equation.

SMILES	Ki [1]	Inverse Agonism: % inhibition of Basal GTPγS binding in Rhesus H3 (rhesus H3 receptor)
C[C@H]1CCCCN1C1CCN(c2ccc(N3CCC4(CCOCC4)C3=O)c(C(F)(F)F)c2)CC1 [Example 23, 2-[4-((2S,3′S)-2-Methyl-[1,4]bipiperidinyl-1′-yl)-2-trifluoromethyl-phenyl]-8-oxa-2-aza-spiro[4.5]decan-1-one]	1.5 nM	−29%
CCCC1CCCN1C1CCN(c2ccc(N3CCC4(CCOCC4)C3=O)c(CC)c2)CC1 (stereo not shown) [Example 24, 2-{2-Ethyl-4-[4-(2-propyl-pyrrolidin-1-yl)-piperidin-1-yl]-phenyl}-8-oxa-2-aza-spiro[4.5]decan-1-one]	18 nM	−18%
CCc1cc(N2CCC(N3CCCC3COC)CC2)ccc1N1CCC2(CCOCC2)C1=O (stereo not shown) [Example 25, 2-{2-Ethyl-4-[4-(2-methoxymethyl-pyrrolidin-1-yl)piperidin-1-yl]-phenyl}-8-oxa-2-aza-spiro[4.5]decan-1-one]	4.9 nM	−13%
C[C@H]1CCCN1[C@H]1CCN(c2ccc(N3CCCC4(CCOCC4)C3=O)c(F)c2)C1 [Example 27, 2-[2-Fluoro-4-((2S,3′S)-2-methyl-[1,3′]bipyrrolidinyl-1′-yl)-phenyl]-9-oxa-2-aza-spiro[5.5]undecan-1-one]	0.7 nM	−20%
Cc1cc(N2CC[C@H](N3CCC[C@H]3C)C2)ccc1N1CCCC2(CCOCC2)C1=O [Example 28, 2-[2-Methyl-4-((2R,3′S)-2-methyl-[1,3′]bipyrrolidinyl-1′-yl)-phenyl]-9-oxa-2-aza-spiro[5.5]undecan-1-one]	13 nM	−13%
Cc1cc(N2CC[C@@H](N3CCC[C@H]3C)C2)ccc1N1CCC2(CCOCC2)C1=O [Example 29, 2-[2-Methyl-4-((2R,3′R)-2-methyl-[1,3′]bipyrrolidinyl-1′-yl)-phenyl]-8-oxa-2-aza-spiro[4.5]decan-1-one]	28 nM	−28%
Cc1cc(N2CC[C@@H](N3CCC[C@@H]3C)C2)ccc1N1CCC2(CCOCC2)C1=O [Example 30]	4.3 nM	−29%
Cc1cc(N2CCC(N3CCCC3C)C2)ccc1N1CCC2(CCOCC2)C1=O (stereo not shown) [Example 31, 2-[2-Methyl-4-(2-methyl-[1,3′]bipyrrolidinyl-1′-yl)-phenyl]-8-oxa-2-aza-spiro[4.5]decan-1-one]	6.2 nM	−28%

Continued, in another order:

Ki [1]	SMILES	Inverse Agonism: % inhibition of Basal GTPγS binding in Rhesus H3 (rhesus H3 receptor)
11 nM	Cc1cc(N2CC[C@@H](N3CCC[C@H]3C)C2)ccc1N1CCCC2(CCOCC2)C1=O [Example 32, 2-[2-Methyl-4-((2R,3′R)-2-methyl-[1,3′]bipyrrolidinyl-1′-yl)-phenyl]-9-oxa-2-aza-spiro[5.5]undecan-1-one]	−15%
1.4 nM	Cc1cc(N2CC[C@@H](N3CCC[C@@H]3C)C2)ccc1N1CCCC2(CCOCC2)C1=O [Example 33]	−19%
1.7 nM	C[C@@H]1CCCN1[C@H]1CCN(c2ccc(N3CCCC4(CCOCC4)C3=O)cc2)C1 [Example 34, 2-[4-((2R,3′S)-2-Methyl-[1,3′]bipyrrolidinyl-1′-yl)-phenyl]-9-oxa-2-aza-spiro[5.5]undecan-1-one]	−12%
0.7 nM	C[C@@H]1CCCN1[C@@H]1CCN(c2ccc(N3CCCC4(CCOCC4)C3=O)cc2)C1 [Example 35, 2-[4-((2R,3′R)-2-Methyl-[1,3′]bipyrrolidinyl-1′-yl)-phenyl]-9-oxa-2-aza-spiro[5.5]undecan-1-one]	−13%
0.26 nM	C[C@H]1CCCN1[C@@H]1CCN(c2ccc(N3CCCC4(CCOCC4)C3=O)cc2)C1 [Example 36, 2-[4-((2S,3′R)-2-Methyl-[1,3′]bipyrrolidinyl-1′-yl)-phenyl]-9-oxa-2-aza-spiro[5.5]undecan-1-one]	−10%
0.1 nM	C[C@H]1CCCN1[C@H]1CCN(c2ccc(N3CCCC4(CCOCC4)C3=O)cc2)C1 [Example 37, 2-[4-((2S,3′S)-2-Methyl-[1,3′]bipyrrolidinyl-1′-yl)-phenyl]-9-oxa-2-aza-spiro[5.5]undecan-1-one]	−20%
1.3 nM	C[C@@H]1CCCN1[C@H]1CCN(c2ccc(N3CCCC4(CCOCC4)C3=O)c(F)c2)C1 [Example 38, 2-[2-Fluoro-4-((2R,3′S)-2-Methyl-[1,3′]bipyrrolidinyl-1′-yl)-phenyl]-9-oxa-2-aza-spiro[5.5]undecan-1-one]	−22%
0.75 nM	C[C@@H]1CCCN1[C@@H]1CCN(c2ccc(N3CCCC4(CCOCC4)C3=O)c(F)c2)C1 [Example 39, 2-[2-Fluoro-4-((2R,3′R)-2-Methyl-[1,3′]bipyrrolidinyl-1′-yl)-phenyl]-9-oxa-2-aza-spiro[5.5]undecan-1-one]	−13%
0.09 nM	C[C@H]1CCCN1[C@@H]1CCN(c2ccc(N3CCCC4(CCOCC4)C3=O)c(F)c2)C1 [Example 40, 2-[2-Fluoro-4-((2S,3′R)-2-Methyl-[1,3′]bipyrrolidinyl-1′-yl)-phenyl]-9-oxa-2-aza-spiro[5.5]undecan-1-one]	−18%
